In one data set the target is T1, mTOR (Homo sapiens, UniProt P42345).
T1 construct: purchased Invitrogen Corporation (Carlsbad/CA, USA) PV4753
Description: Biochemical assay for m-TOR by TR-FRET. The conditions noted are these: 8 μM ATP, 400 nM GFP-4EBP1, 0.5 nM mTOR. Summed up: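 mTOR (0.5 nM final) phosphorylated GFP-4EBP1 (400 nM final) with ATP (8 μM final) at rt in 50 mM HEPES pH 7.5, 10 mM MnCl2, 50 mM NaCl, 1 mM EGTA, 1 mM DTT. EDTA stop with Tb3+-anti-p4EBP1 [pThr46] antibody (0.5 nM); TR-FRET read 15 min later.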
Background: TR-FRET usually uses a lanthanide donor and a delayed reading to cut background.

A short description of the next data set: Solubility at pH 6.8. It is filed as physicochemical. Summed up: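 Solubility was measured at pH 6.8 following the cited Zhou et al. (2007) procedure.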
Data set [1] has as its system PKB Ser473 phosphorylation in Rat1-myr-HA-p110 alpha cells. The data set is described as follows: Reverse protein array assay, PKB Ser473 phosphorylation in Rat1-myr-p110 alpha cells. The conditions noted are these: 0.5 h, pAkt Ser473, 30 minutes compound incubation, read-out: p-PKB IC50. It counts as cell-based. A digest of the protocol:
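Cells: Rat1-myr-HA-p110 alpha/beta/delta, seeded ≥20 h. Lysis on ice 10 min; reverse-phase protein array, 4 lysate dilutions; fluorescence read, relative intensity.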

The test system of data set [2] is S6 Ribosomal Protein phosphorylation Ser235/236 in TSC1 null mouse embryo fibroblast (MEF) cells. The data set is described as follows: Reverse protein array assay, S6 Ribosomal Protein phosphorylation Ser235/236 in TSC1 null MEF cells. It is filed as cell-based. The conditions noted are these: 1 h, pS6 ribosomal protein Ser235/236, 60 minutes incubation, read-out: p-S6 IC50. A digest of the protocol:
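TSC1−/− MEFs, seeded and held ≥20 h at 37 °C/5% CO2, were exposed to 8-step serial compound dilutions (0.02% DMSO final; DMSO vehicle control) for 60 min at 37 °C. Cells were then lysed on ice for 10 min and lysates spotted onto reverse protein array chips.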

Where [3] appears, read: pH 6.8, aqueous buffer, thermodynamic from solid, read-out: solubility.

Values after ≈ are worked out from the molar mass of the structure shown. Where two headings read alike, the source gives them in different places. A value given as a limit tells only on which side of the number the result lay.

T1 sequence (P42345 1360-2549 limits assumed): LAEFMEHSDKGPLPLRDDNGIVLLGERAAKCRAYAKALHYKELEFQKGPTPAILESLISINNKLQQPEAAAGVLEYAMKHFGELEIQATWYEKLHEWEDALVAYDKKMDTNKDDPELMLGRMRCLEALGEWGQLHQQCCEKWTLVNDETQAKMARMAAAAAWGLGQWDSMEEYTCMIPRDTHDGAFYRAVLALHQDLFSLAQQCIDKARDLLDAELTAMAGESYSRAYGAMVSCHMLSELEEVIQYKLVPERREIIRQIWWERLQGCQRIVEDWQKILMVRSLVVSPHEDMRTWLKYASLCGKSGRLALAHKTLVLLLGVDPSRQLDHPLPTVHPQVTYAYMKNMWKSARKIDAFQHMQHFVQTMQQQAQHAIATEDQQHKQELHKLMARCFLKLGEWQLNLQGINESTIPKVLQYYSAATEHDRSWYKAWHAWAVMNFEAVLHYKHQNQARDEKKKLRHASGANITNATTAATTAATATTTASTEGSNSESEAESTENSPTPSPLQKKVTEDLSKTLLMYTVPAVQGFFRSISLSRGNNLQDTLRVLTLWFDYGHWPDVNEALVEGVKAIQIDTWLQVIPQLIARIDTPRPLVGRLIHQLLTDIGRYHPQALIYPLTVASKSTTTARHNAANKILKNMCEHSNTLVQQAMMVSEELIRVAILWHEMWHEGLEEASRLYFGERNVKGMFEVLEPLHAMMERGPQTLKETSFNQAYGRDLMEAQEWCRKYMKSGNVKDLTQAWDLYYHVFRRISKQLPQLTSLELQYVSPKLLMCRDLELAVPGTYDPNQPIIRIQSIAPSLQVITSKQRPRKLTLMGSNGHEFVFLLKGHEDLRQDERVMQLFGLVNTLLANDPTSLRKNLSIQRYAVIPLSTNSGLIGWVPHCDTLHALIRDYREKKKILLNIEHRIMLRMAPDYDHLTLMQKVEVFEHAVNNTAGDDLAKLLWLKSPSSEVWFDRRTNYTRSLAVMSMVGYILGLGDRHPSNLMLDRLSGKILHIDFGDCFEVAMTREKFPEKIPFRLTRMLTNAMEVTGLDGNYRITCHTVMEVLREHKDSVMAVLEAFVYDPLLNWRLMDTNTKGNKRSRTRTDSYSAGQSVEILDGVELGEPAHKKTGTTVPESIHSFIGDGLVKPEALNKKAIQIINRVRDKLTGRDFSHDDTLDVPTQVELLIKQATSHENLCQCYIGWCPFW

As to `Cc1nn(C(C)C)cc1-n1c(=O)n(C)c2cnc3ccc(-c4ccc(N(C)C)nc4)cc3c21` [Example 4.1, 8-(6-Dimethylamino-pyridin-3-yl)-1-(1-isopropyl-3-methyl-1H-pyrazol-4-yl)-3-methyl-1,3-dihydro-imidazo[4,5-c]quinolin-2-one], the IC50 is 0.03 µM at mTOR, 0.016 µM in data set [1] and 0.015 µM in data set [2]. Moreover, the solubility in the data set “Solubility at pH 6.8” (setting [3]) is 336 µg/mL (≈ 761 µM).

`CCOc1ccc(-c2ccc3ncc4c(c3c2)n(-c2cn(C)nc2C)c(=O)n4C)cc1OC` [Example 29.3, 1-(1,3-Dimethyl-1H-pyrazol-4-yl)-8-(4-ethoxy-3-methoxy-phenyl)-3-methyl-1,3-dihydro-imidazo[4,5-c]quinolin-2-one]: the results for the IC50 (at mTOR; in data set [1]; in data set [2]) were 0.007 µM, 0.008 µM and 0.004 µM, respectively. The molecule further displayed a solubility in “Solubility at pH 6.8” (pH 6.8) of 2 µg/mL (≈ 4.51 µM).

For `COCc1ncc(-c2ccc3ncc4c(c3c2)n(-c2cn(C)nc2C)c(=O)n4C)cc1OC(C)C` [Example 191.1, 1-(1,3-Dimethyl-1H-pyrazol-4-yl)-8-(5-isopropoxy-6-methoxymethyl-pyridin-3-yl)-3-methyl-1,3-dihydro-imidazo[4,5-c]quinolin-2-one], the values for the 50% inhibitory concentration (IC50) (on mTOR; in data set [1]; in data set [2]) were 0.025 µM, 0.014 µM and 0.004 µM, respectively. Besides, the solubility in the data set “Solubility at pH 6.8” (setting [3]) was above 473 µg/mL.

For the molecule `CCNc1ncc(-c2ccc3ncc4c(c3c2)n(-c2cn(C)nc2C)c(=O)n4C)cc1COCC` [Example 167, 1-(1,3-Dimethyl-1H-pyrazol-4-yl)-8-(5-ethoxymethyl-6-ethylamino-pyridin-3-yl)-3-methyl-1,3-dihydro-imidazo[4,5-c]quinolin-2-one], the IC50 on mTOR amounted to 0.058 µM; in data set [1] it was 0.035 µM; in data set [2], 0.007 µM. For the same molecule, in “Solubility at pH 6.8” (setting [3]), the solubility was determined as 4 µg/mL (≈ 8.48 µM).

Turning to `Cc1nn(C)cc1-n1c(=O)n(C)c2cnc3ccc(-c4ccc5c(c4)CC(=O)N5)cc3c21` [Example 49, 1-(1,3-Dimethyl-1H-pyrazol-4-yl)-3-methyl-8-(2-oxo-2,3-dihydro-1H-indol-5-yl)-1,3-dihydro-imidazo[4,5-c]quinolin-2-one], the IC50 on mTOR came out at 0.046 µM; in data set [1], 0.051 µM; in data set [2], 0.217 µM. Also, in the data set “Solubility at pH 6.8” (setting [3]), the solubility stood at 33 µg/mL (≈ 77.7 µM).

On to `COCc1ncc(-c2ccc3ncc4c(c3c2)n(-c2cn(C)nc2C)c(=O)n4C)cc1OC` [Example 195.1, 1-(1,3-Dimethyl-1H-pyrazol-4-yl)-8-(5-methoxy-6-methoxymethyl-pyridin-3-yl)-3-methyl-1,3-dihydro-imidazo[4,5-c]quinolin-2-one], for which the IC50 was found to be 0.048 µM on mTOR, 0.063 µM in data set [1] and 0.005 µM in data set [2]. Besides, the solubility in “Solubility at pH 6.8” (setting [3]) was determined as 439 µg/mL (≈ 988 µM).

For `COc1ncc(-c2ccc3ncc4c(c3c2)n(-c2cn(C)nc2C)c(=O)n4C)cc1NC(C)=O` [Example 64, N-{5-[1-(1,3-Dimethyl-1H-pyrazol-4-yl)-3-methyl-2-oxo-2,3-dihydro-1H-imidazo[4,5-c]quinolin-8-yl]-2-methoxy-pyridin-3-yl}-acetamide], the half-maximal inhibitory concentration (IC50) at mTOR worked out at 0.03 µM; in data set [1] it was 0.012 µM; in data set [2] it was 0.005 µM. In the data set “Solubility at pH 6.8” (setting [3]), the solubility was 3 µg/mL (≈ 6.56 µM).

`Cc1nn(C)c(C)c1-n1c(=O)n(C)c2cnc3ccc(-c4cnc(N)c(F)c4)cc3c21` [Example 142.1, 8-(6-Amino-5-fluoro-pyridin-3-yl)-3-methyl-1-(1,3,5-trimethyl-1H-pyrazol-4-yl)-1,3-dihydro-imidazo[4,5-c]quinolin-2-one]: the IC50 came out at 0.481 µM on mTOR, 0.157 µM in data set [1] and 0.036 µM in data set [2]. Also, the solubility in “Solubility at pH 6.8” (setting [3]) was above 417 µg/mL.

As for `COc1ccc(-c2ccc3ncc4c(c3c2)n(-c2cc(C)nn2C)c(=O)n4C)cn1` [Example 2.3, 1-(2,5-Dimethyl-2H-pyrazol-3-yl)-8-(6-methoxy-pyridin-3-yl)-3-methyl-1,3-dihydro-imidazo[4,5-c]quinolin-2-one], the values for the IC50 (at mTOR; in data set [1]) were 0.096 µM and 0.012 µM, respectively. Also, in “Solubility at pH 6.8” (setting [3]), the solubility was found to be 7 µg/mL (≈ 17.5 µM).

In the case of `CCN(C)C(=O)Cn1cc(-n2c(=O)n(C)c3cnc4ccc(-c5ccccc5)cc4c32)c(C)n1` [Example 135, N-Ethyl-N-methyl-2-[3-methyl-4-(3-methyl-2-oxo-8-phenyl-2,3-dihydro-imidazo[4,5-c]quinolin-1-yl)-pyrazol-1-yl]-acetamide], the results for the IC50 (on mTOR; in data set [1]; in data set [2]) were 0.14 µM, 0.026 µM and 0.006 µM, respectively. The solubility in the data set “Solubility at pH 6.8” (setting [3]) was 164 µg/mL (≈ 361 µM).

As to `Cc1nn(C)cc1-n1c(=O)n(C)c2cnc3ccc(-c4cnc5c(c4)OCCN5C)cc3c21` [Example 209, 1-(1,3-Dimethyl-1H-pyrazol-4-yl)-3-methyl-8-(4-methyl-3,4-dihydro-2H-pyrido[3,2-b][1,4]oxazin-7-yl)-1,3-dihydro-imidazo[4,5-c]quinolin-2-one], the results for the IC50 (at mTOR; in data set [1]; in data set [2]) were 0.021 µM, 0.018 µM and 0.002 µM, respectively. Besides, the solubility in “Solubility at pH 6.8” (pH 6.8) was determined as 2 µg/mL (≈ 4.53 µM).

With `COCc1cncc(-c2ccc3ncc4c(c3c2)n(-c2cn(C)nc2C)c(=O)n4C)c1` [Example 54.1, 1-(1,3-Dimethyl-1H-pyrazol-4-yl)-8-(5-methoxymethyl-pyridin-3-yl)-3-methyl-1,3-dihydro-imidazo[4,5-c]quinolin-2-one], the 50% inhibitory concentration (IC50) came out at 0.079 µM at mTOR, 0.095 µM in data set [1] and 0.005 µM in data set [2]. In the data set “Solubility at pH 6.8” (setting [3]), the solubility is 164 µg/mL (≈ 396 µM).

With `CNc1ccc(-c2ccc3ncc4c(c3c2)n(-c2cn(C)nc2C)c(=O)n4C)cn1` [Example 118.2, 1-(1,3-Dimethyl-1H-pyrazol-4-yl)-3-methyl-8-(6-methylamino-pyridin-3-yl)-1,3-dihydro-imidazo[4,5-c]quinolin-2-one], the IC50 is 0.004 µM on mTOR, below 0.005 µM in data set [1] and 0.001 µM in data set [2]. For the same molecule, in the data set “Solubility at pH 6.8” (setting [3]), the solubility turned out to be 30 µg/mL (≈ 75.1 µM).

For the molecule `COc1ccc(-c2ccc3ncc4c(c3c2)n(-c2cn(C(C)C)nc2C)c(=O)n4C)cn1` [Example 2.8, 1-(1-Isopropyl-3-methyl-1H-pyrazol-4-yl)-8-(6-methoxy-pyridin-3-yl)-3-methyl-1,3-dihydro-imidazo[4,5-c]quinolin-2-one], the results for the IC50 (at mTOR; in data set [1]; in data set [2]) were 0.033 µM, 0.046 µM and 0.021 µM, respectively. The solubility in the data set “Solubility at pH 6.8” (pH 6.8) was found to be 2 µg/mL (≈ 4.67 µM).

For the molecule `COCCOc1ccc(-c2ccc3ncc4c(c3c2)n(-c2cn(C)nc2C)c(=O)n4C)cn1` [Example 18, 1-(1,3-Dimethyl-1H-pyrazol-4-yl)-8-[6-(2-methoxy-ethoxy)-pyridin-3-yl]-3-methyl-1,3-dihydro-imidazo[4,5-c]quinolin-2-one], the half-maximal inhibitory concentration (IC50) at mTOR was 0.123 µM; in data set [1], 0.139 µM. In addition, the solubility in the data set “Solubility at pH 6.8” (setting [3]) is 240 µg/mL (≈ 540 µM).

Consider `CCOc1cc(-c2ccc3ncc4c(c3c2)n(-c2c(C)nn(C)c2C)c(=O)n4C)ccc1OC` [Example 28.2, 8-(3-Ethoxy-4-methoxy-phenyl)-3-methyl-1-(1,3,5-trimethyl-1H-pyrazol-4-yl)-1,3-dihydro-imidazo[4,5-c]quinolin-2-one], for which the values for the IC50 (at mTOR; in data set [1]) were 0.549 µM and 0.076 µM, respectively. Also, the solubility in “Solubility at pH 6.8” (setting [3]) is 3 µg/mL (≈ 6.56 µM).

With `Cc1nn(C)cc1-n1c(=O)n(C)c2cnc3ccc(-c4cncc(N(C)S(C)(=O)=O)c4)cc3c21` [Example 121, N-{5-[1-(1,3-Dimethyl-1H-pyrazol-4-yl)-3-methyl-2-oxo-2,3-dihydro-1H-imidazo[4,5-c]quinolin-8-yl]-pyridin-3-yl}-N-methyl-methanesulfonamide], the values for the IC50 (on mTOR; in data set [1]) were 0.091 µM and 0.254 µM, respectively. In “Solubility at pH 6.8” (setting [3]), the solubility came out at 47 µg/mL (≈ 98.4 µM).

As to `COc1ccc(-c2ccc3ncc4c(c3c2)n(-c2ccnn2C)c(=O)n4C)cc1OC` [Example 1.3, 8-(3,4-Dimethoxy-phenyl)-3-methyl-1-(2-methyl-2H-pyrazol-3-yl)-1,3-dihydro-imidazo[4,5-c]quinolin-2-one], the results for the half-inhibitory concentration (IC50) (at mTOR; in data set [1]) were 0.132 µM and 0.046 µM, respectively. In the data set “Solubility at pH 6.8” (pH 6.8), this molecule registered a solubility of 2 µg/mL (≈ 4.81 µM).

With `CCn1cc(-n2c(=O)n(C)c3cnc4ccc(-c5cnc(NC)nc5OC)cc4c32)c(C)n1` [Example 236, 1-(1-Ethyl-3-methyl-1H-pyrazol-4-yl)-8-(4-methoxy-2-methylamino-pyrimidin-5-yl)-3-methyl-1,3-dihydro-imidazo[4,5-c]quinolin-2-one], the IC50 on mTOR was below 0.003 µM; in data set [1], below 0.005 µM. The solubility in “Solubility at pH 6.8” (pH 6.8) was 2 µg/mL (≈ 4.5 µM).

`COc1ncc(-c2ccc3ncc4c(c3c2)n(-c2cn(C)nc2C)c(=O)n4C)cc1[N+](=O)[O-]` [Example 66, 1-(1,3-dimethyl-1H-pyrazol-4-yl)-8-(6-methoxy-5-nitro-pyridin-3-yl)-3-methyl-1,3-dihydro-imidazo[4,5-c]quinolin-2-one]: the IC50 came to 0.207 µM at mTOR and 0.096 µM in data set [1]. In “Solubility at pH 6.8” (pH 6.8), this molecule displayed a solubility of 2 µg/mL (≈ 4.49 µM).

As a reminder, the IC50 is the concentration that inhibits the measured activity by half. The solubility is how much of the substance goes into solution per volume.

The record behind these values is patent US20140005163A1 (NOVARTIS AG, priority 2010, published 2014).
